In patent publication US20240208992A1, “MACROCYCLES AS CFTR MODULATORS” (Idorsia Pharmaceuticals Ltd, priority 2021, published 2024):

Biological target: human F508del-CFTR (Homo sapiens, UniProt P13569, DEL508-508)
Assay: F508del-CFTR cell surface expression (corrector activity), DiscoveRx ß-galactosidase complementation chemiluminescence assay in recombinant U2OS cell line;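 note: U2OS cells co-expressing ProLink-tagged F508del-CFTR and a membrane-anchored enzyme acceptor, where more surface CFTR restores β-galactosidase activity measured by chemiluminescence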
Conditions: for EC50: EC50, F508del-CFTR cell surface expression, U2OS cells, 16h compound incubation, geomean values; for Emax: U2OS, in relation to Emax of corrector lumacaftor (=100%), arithmetic mean values

human F508del-CFTR, sequence (P13569 with tags, fused parts or gaps DEL508-508): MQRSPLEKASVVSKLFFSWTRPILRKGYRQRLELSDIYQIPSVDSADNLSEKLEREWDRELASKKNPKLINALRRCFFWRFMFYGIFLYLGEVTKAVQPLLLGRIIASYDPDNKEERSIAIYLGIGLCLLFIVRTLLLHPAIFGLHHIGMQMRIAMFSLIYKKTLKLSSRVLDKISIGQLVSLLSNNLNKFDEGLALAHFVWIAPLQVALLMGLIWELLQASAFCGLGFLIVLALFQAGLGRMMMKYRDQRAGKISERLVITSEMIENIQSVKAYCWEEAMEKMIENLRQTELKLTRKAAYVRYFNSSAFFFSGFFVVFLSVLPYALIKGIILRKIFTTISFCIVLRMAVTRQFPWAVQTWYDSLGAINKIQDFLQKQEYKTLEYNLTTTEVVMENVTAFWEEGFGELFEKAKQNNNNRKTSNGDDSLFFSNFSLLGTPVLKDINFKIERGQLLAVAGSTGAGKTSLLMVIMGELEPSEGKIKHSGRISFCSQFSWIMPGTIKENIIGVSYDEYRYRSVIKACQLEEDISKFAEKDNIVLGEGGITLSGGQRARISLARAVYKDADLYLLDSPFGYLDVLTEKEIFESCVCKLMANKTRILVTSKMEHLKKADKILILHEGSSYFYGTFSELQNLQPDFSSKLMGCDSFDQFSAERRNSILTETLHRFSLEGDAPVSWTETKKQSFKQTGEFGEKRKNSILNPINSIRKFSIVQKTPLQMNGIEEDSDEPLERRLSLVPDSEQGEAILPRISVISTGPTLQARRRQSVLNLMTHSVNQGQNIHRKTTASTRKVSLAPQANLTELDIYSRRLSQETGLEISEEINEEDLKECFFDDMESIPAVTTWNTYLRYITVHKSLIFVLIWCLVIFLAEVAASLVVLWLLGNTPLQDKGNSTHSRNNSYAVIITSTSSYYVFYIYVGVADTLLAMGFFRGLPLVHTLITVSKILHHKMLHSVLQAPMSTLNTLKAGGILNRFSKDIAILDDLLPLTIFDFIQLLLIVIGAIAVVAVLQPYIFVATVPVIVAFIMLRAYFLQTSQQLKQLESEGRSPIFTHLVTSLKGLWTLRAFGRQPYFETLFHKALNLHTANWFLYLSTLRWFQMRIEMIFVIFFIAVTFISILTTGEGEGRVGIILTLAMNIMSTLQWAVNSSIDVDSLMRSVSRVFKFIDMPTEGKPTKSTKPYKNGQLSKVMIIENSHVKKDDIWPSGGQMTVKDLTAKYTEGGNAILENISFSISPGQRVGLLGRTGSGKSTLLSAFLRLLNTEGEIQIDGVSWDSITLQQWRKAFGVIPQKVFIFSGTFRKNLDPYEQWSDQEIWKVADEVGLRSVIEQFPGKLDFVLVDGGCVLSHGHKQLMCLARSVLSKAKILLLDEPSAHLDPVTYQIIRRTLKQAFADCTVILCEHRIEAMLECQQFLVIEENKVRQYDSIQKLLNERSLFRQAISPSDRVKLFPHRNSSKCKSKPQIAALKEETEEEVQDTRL

SMILES | EC50 | Emax
CC(C)C[C@H]1C(=O)N(CCC2CCCCC2)CC(=O)N[C@H](Cc2ccccc2)COc2ccc3ccccc3c2C(=O)N[C@H](C(=O)NCCc2ccc3c(c2)OCC3)CC(=O)N1C [Example 600, (3S,7S,13R)-13-benzyl-9-(2-cyclohexylethyl)-N-(2-(2,3-dihydrobenzofuran-6-yl)ethyl)-7-isobutyl-6-methyl-1,5,8,11-tetraoxo-1,2,3,4,5,6,7,8,9,10,11,12,13,14-tetradecahydronaphtho[1,2-p][1]oxa[4,7,10,14]tetraazacycloheptadecine-3-carboxamide] | 97 nM | 286%
COc1cccc(CCNC(=O)[C@@H]2CC(=O)N(C)[C@@H](CC(C)C)C(=O)N3CCCC[C@H]3C(=O)N[C@H](Cc3ccccc3)COc3cc(OC)cc(OC)c3C(=O)N2)c1 [Example 601, (7S,11S,20R,22aS)-20-benzyl-7-isobutyl-14,16-dimethoxy-N-(3-methoxyphenethyl)-8-methyl-6,9,13,22-tetraoxo-1,3,4,6,7,8,9,10,11,12,13,19,20,21,22,22a-hexadecahydro-2H-benzo[p]pyrido[2,1-f][1]oxa[4,7,10,14]tetraazacycloheptadecine-11-carboxamide] | 589 nM | 138%
COc1cccc(CCNC(=O)[C@@H]2CC(=O)N(C)[C@@H](CC(C)C)C(=O)N3CCCC[C@@H]3C(=O)N[C@H](Cc3ccccc3)COc3cc(OC)cc(OC)c3C(=O)N2)c1 [Example 602, (7S,11S,20R,22aR)-20-benzyl-7-isobutyl-14,16-dimethoxy-N-(3-methoxyphenethyl)-8-methyl-6,9,13,22-tetraoxo-1,3,4,6,7,8,9,10,11,12,13,19,20,21,22,22a-hexadecahydro-2H-benzo[p]pyrido[2,1-f][1]oxa[4,7,10,14]tetraazacycloheptadecine-11-carboxamide] | 286 nM | 299%
COc1cccc(CCNC(=O)[C@@H]2CC(=O)N(C)[C@@H](CC(C)C)C(=O)N3CCCC[C@@H]3C(=O)N[C@H](Cc3ccccc3)COc3ccc4ccccc4c3C(=O)N2)c1 [Example 603, (4aR,7R,18S,22S)-7-benzyl-22-isobutyl-N-(3-methoxyphenethyl)-21-methyl-5,16,20,23-tetraoxo-2,3,4,4a,5,6,7,8,16,17,18,19,20,21,22,23-hexadecahydro-1H-naphtho[1,2-p]pyrido[2,1-f][1]oxa[4,7,10,14]tetraazacycloheptadecine-18-carboxamide] | 205 nM | 301%
COc1cccc(CCNC(=O)[C@@H]2CC(=O)N(C)[C@@H](CC(C)C)C(=O)N3CCCC[C@H]3C(=O)N[C@H](Cc3ccccc3)COc3ccc4ccccc4c3C(=O)N2)c1 [Example 604, (4aS,7R,18S,22S)-7-benzyl-22-isobutyl-N-(3-methoxyphenethyl)-21-methyl-5,16,20,23-tetraoxo-2,3,4,4a,5,6,7,8,16,17,18,19,20,21,22,23-hexadecahydro-1H-naphtho[1,2-p]pyrido[2,1-f][1]oxa[4,7,10,14]tetraazacycloheptadecine-18-carboxamide] | 354 nM | 103%
CCN1CCN2C(=O)[C@H](CC(C)C)N(C)C(=O)C[C@@H](C(=O)NCCc3cccc(OC)c3)NC(=O)c3c(OC)cccc3OC[C@@H](Cc3ccccc3)NC(=O)[C@H]2C1 [Example 605, (7S,11S,20R,22aR)-20-benzyl-2-ethyl-7-isobutyl-14-methoxy-N-(3-methoxyphenethyl)-8-methyl-6,9,13,22-tetraoxo-1,3,4,6,7,8,9,10,11,12,13,19,20,21,22,22a-hexadecahydro-2H-benzo[p]pyrazino[2,1-f][1]oxa[4,7,10,14]tetraazacycloheptadecine-11-carboxamide] | 637 nM | 257%
Cc1cc(CCNC(=O)[C@@H]2CC(=O)N(C)[C@@H](CC(C)C)C(=O)N3CCCC[C@H]3C(=O)N[C@H](Cc3ccccc3)COc3ccc4ccccc4c3C(=O)N2)on1 [Example 606, (4aS,7R,18S,22S)-7-benzyl-22-isobutyl-21-methyl-N-(2-(3-methylisoxazol-5-yl)ethyl)-5,16,20,23-tetraoxo-2,3,4,4a,5,6,7,8,16,17,18,19,20,21,22,23-hexadecahydro-1H-naphtho[1,2-p]pyrido[2,1-f][1]oxa[4,7,10,14]tetraazacycloheptadecine-18-carboxamide] | 521 nM | 150%
Cc1cc(CCNC(=O)[C@@H]2CC(=O)N(C)[C@@H](CC(C)C)C(=O)N3CCCC[C@@H]3C(=O)N[C@H](Cc3ccccc3)COc3ccc4ccccc4c3C(=O)N2)on1 [Example 607, (4aR,7R,18S,22S)-7-benzyl-22-isobutyl-21-methyl-N-(2-(3-methylisoxazol-5-yl)ethyl)-5,16,20,23-tetraoxo-2,3,4,4a,5,6,7,8,16,17,18,19,20,21,22,23-hexadecahydro-1H-naphtho[1,2-p]pyrido[2,1-f][1]oxa[4,7,10,14]tetraazacycloheptadecine-18-carboxamide] | 121 nM | 283%
Cc1cc(CCNC(=O)[C@@H]2CC(=O)N(C)[C@@H](CC(C)C)C(=O)N3CCOC[C@@H]3C(=O)N[C@H](Cc3ccccc3)COc3ccc4ccccc4c3C(=O)N2)on1 [Example 608, (4aR,7R,18S,22S)-7-benzyl-22-isobutyl-21-methyl-N-(2-(3-methylisoxazol-5-yl)ethyl)-5,16,20,23-tetraoxo-1,2,4,4a,5,6,7,8,16,17,18,19,20,21,22,23-hexadecahydronaphtho[1,2-p][1,4]oxazino[3,4-f][1]oxa[4,7,10,14]tetraazacycloheptadecine-18-carboxamide] | 804 nM | 267%
COc1cc(OC)c2c(c1)OC[C@@H](Cc1ccccc1)NC(=O)[C@H]1CCCCN1C(=O)[C@H](CC(C)C)N(C)C(=O)C[C@@H](C(=O)NCCc1cc(C)no1)NC2=O [Example 609, (7S,11S,20R,22aR)-20-benzyl-7-isobutyl-14,16-dimethoxy-8-methyl-N-(2-(3-methylisoxazol-5-yl)ethyl)-6,9,13,22-tetraoxo-1,3,4,6,7,8,9,10,11,12,13,19,20,21,22,22a-hexadecahydro-2H-benzo[p]pyrido[2,1-f][1]oxa[4,7,10,14]tetraazacycloheptadecine-11-carboxamide] | 574 nM | 320%
CC(C)C[C@H]1C(=O)N(CCC2CCCCC2)CC(=O)N[C@H](Cc2ccccc2)COc2cnc3ccccc3c2C(=O)N[C@H](C(=O)NCCc2ccc3c(c2)OCO3)CC(=O)N1C [Example 610, (3S,7S,13R)-N-(2-(benzo[d][1,3]dioxol-5-yl)ethyl)-13-benzyl-9-(2-cyclohexylethyl)-7-isobutyl-6-methyl-1,5,8,11-tetraoxo-1,2,3,4,5,6,7,8,9,10,11,12,13,14-tetradecahydro-[1]oxa[4,7,10,14]tetraazacycloheptadecino[17,16-c]quinoline-3-carboxamide] | 89 nM | 311%
COc1cccc(CCNC(=O)[C@@H]2CC(=O)N(C)[C@@H](CC(C)C)C(=O)N3CCN(C(C)C)C[C@@H]3C(=O)N[C@H](Cc3ccccc3)COc3cccc(OC)c3C(=O)N2)c1 [Example 611, (7S,11S,20R,22aR)-20-benzyl-7-isobutyl-2-isopropyl-14-methoxy-N-(3-methoxyphenethyl)-8-methyl-6,9,13,22-tetraoxo-1,3,4,6,7,8,9,10,11,12,13,19,20,21,22,22a-hexadecahydro-2H-benzo[p]pyrazino[2,1-f][1]oxa[4,7,10,14]tetraazacycloheptadecine-11-carboxamide] | 344 nM | 251%
COc1cccc(CCNC(=O)[C@@H]2CC(=O)N(C)[C@@H](CC(C)C)C(=O)N3CCN(CC(C)C)C[C@@H]3C(=O)N[C@H](Cc3ccccc3)COc3cccc(OC)c3C(=O)N2)c1 [Example 612, (7S,11S,20R,22aR)-20-benzyl-2,7-diisobutyl-14-methoxy-N-(3-methoxyphenethyl)-8-methyl-6,9,13,22-tetraoxo-1,3,4,6,7,8,9,10,11,12,13,19,20,21,22,22a-hexadecahydro-2H-benzo[p]pyrazino[2,1-f][1]oxa[4,7,10,14]tetraazacycloheptadecine-11-carboxamide] | 148 nM | 298%
COc1cc(CCNC(=O)[C@@H]2CC(=O)N(C)[C@@H](CC(C)C)C(=O)N3CCN(CC(C)C)C[C@@H]3C(=O)N[C@H](Cc3ccccc3)COc3ccc4ccccc4c3C(=O)N2)cc(OC)c1 [Example 613, (4aR,7R,18S,22S)-7-benzyl-N-(3,5-dimethoxyphenethyl)-3,22-diisobutyl-21-methyl-5,16,20,23-tetraoxo-2,3,4,4a,5,6,7,8,16,17,18,19,20,21,22,23-hexadecahydro-1H-naphtho[1,2-p]pyrazino[2,1-f][1]oxa[4,7,10,14]tetraazacycloheptadecine-18-carboxamide] | 82 nM | 312%
COc1cccc(CCNC(=O)[C@@H]2CC(=O)N(C)[C@@H](CC(C)C)C(=O)N3CCCC[C@@H]3C(=O)N[C@H](Cc3ccccc3)COc3ccc4nc(C)oc4c3C(=O)N2)c1 [Example 614, (8S,12S,18aR,21R)-21-benzyl-12-isobutyl-N-(3-methoxyphenethyl)-4,11-dimethyl-6,10,13,19-tetraoxo-6,7,8,9,10,11,12,13,16,17,18,18a,19,20,21,22-hexadecahydro-15H-oxazolo[4′,5′:5,6]benzo[1,2-p]pyrido[2,1-f][1]oxa[4,7,10,14]tetraazacycloheptadecine-8-carboxamide] | 484 nM | 317%
COc1cccc(CCNC(=O)[C@@H]2CC(=O)N(C)[C@@H](CC(C)C)C(=O)N3CCCC[C@H]3C(=O)N[C@H](Cc3ccccc3)COc3ccc4nc(C)oc4c3C(=O)N2)c1 [Example 615, (8S,12S,18aS,21R)-21-benzyl-12-isobutyl-N-(3-methoxyphenethyl)-4,11-dimethyl-6,10,13,19-tetraoxo-6,7,8,9,10,11,12,13,16,17,18,18a,19,20,21,22-hexadecahydro-15H-oxazolo[4′,5′:5,6]benzo[1,2-p]pyrido[2,1-f][1]oxa[4,7,10,14]tetraazacycloheptadecine-8-carboxamide] | 465 nM | 170%
